In general, pIC50 refers to the IC50 on a negative log10 scale, so that one unit is a factor of ten.

pIC50: −log10 of the molar value. Where two headings read alike, the source gives them in different places.

The target in test [1] is recombinant human Mcl-1 (residues 171-327) / Bim interaction (Homo sapiens (Human), UniProt Q07820). The test is described as follows: biochemical. The following applies: read-out: Mcl-1 HTRF IC50. It counts as binding.
Test [2] concerns human multiple myeloma cell line, OPM-2. Kind of test: Cell viability assay (OPM-2 10 FBS), CellTiter-Glo. It counts as cell-based. An outline of the steps: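 IC50 values come from 4-parameter logistic fits of luminescence signals reflecting cell viability. Treatment lasted 16 h at 37 °C in complete medium with 10% FBS, starting from 3000 cells/well.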
For orientation: In ATP-based viability assays light output follows the ATP content of the culture.

The mark [3] stands for this setting: TR-FRET, Mcl-1(171-327) / biotin-Bim (51-76).
Setting [4] is: read-out: OPM-2 10% FBS IC50 IP, OPM-2 cells, 10% FBS, 16 h, CellTiter-Glo.
The mark [5] stands for this setting: Homo sapiens, OPM-2, 16 h, read-out: OPM-2 10% FBS IC50 IP, OPM-2 cells, 10% FBS, 16 h, CellTiter-Glo.

recombinant human Mcl-1 (residues 171-327) / Bim interaction, sequence (Q07820 171-327): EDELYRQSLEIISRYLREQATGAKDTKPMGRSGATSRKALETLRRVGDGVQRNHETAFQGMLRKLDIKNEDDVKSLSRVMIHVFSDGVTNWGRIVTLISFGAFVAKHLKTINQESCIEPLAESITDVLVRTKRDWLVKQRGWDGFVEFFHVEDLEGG

Take `CO[C@H](C)[C@]1(OC)/C=C/C[C@H](C)[C@@H](C)S(=O)(=O)NC(=O)c2ccc3c(c2)N(C[C@@H]2CC[C@H]21)C[C@@]1(CCCc2cc(Cl)ccc21)CO3` [Example 100473, (1S,3′R,6′R,7′S,8′E,11′S,12′R)-6-chloro-7′-methoxy-7′-((1R)-1-methoxyethyl)-11′,12′-dimethyl-3,4-dihydro-2H,15′H-spiro[naphthalene-1,22′-[20]oxa[13]thia[1,14]diazatetracyclo [14.7.2.0~3,6~.0~19,24~]pentacosa[8,16,18,24]tetraen]-15′-one 13′,13′-dioxide]: the pIC50 in test [1] (setting [3]) was 9.01; in test [2] (setting [4]) it was 6.75.

As for `CO[C@@]1(Cc2nc(C)co2)/C=C/C[C@H](C)[C@@H](C)S(=O)(=O)NC(=O)c2ccc3c(c2)N(C[C@@H]2CC[C@H]21)C[C@@]1(CCCc2cc(Cl)ccc21)CO3` [Example 100527, (1S,3′R,6′R,7′S,8′E,11′S,12′R)-6-chloro-7′-methoxy-11′,12′-dimethyl-7′-((4-methyl-1,3-oxazol-2-yl)methyl)-3,4-dihydro-2H,15′H-spiro[naphthalene-1,22′-[20]oxa[13]thia[1,14]diazatetracyclo [14.7.2.0~3,6~.0~19,24~]pentacosa[8,16,18,24]tetraen]-15′-one 13′,13′-dioxide], the pIC50 is 8.44 in test [1] (setting [3]) and 5.45 in test [2] (setting [5]).

For `CO[C@@]1(CCCO)/C=C/C[C@H](C)[C@@H](C)S(=O)(=O)NC(=O)c2ccc3c(c2)N(C[C@@H]2CC[C@H]21)C[C@@]1(CCCc2cc(Cl)ccc21)CO3` [Example 100178, (1S,3′R,6′R,7′S,8′E,11′S,12′R)-6-chloro-7′-(3-hydroxypropyl)-7′-methoxy-11′,12′-dimethyl-3,4-dihydro-2H,15′H-spiro[naphthalene-1,22′-[20]oxa[13]thia[1,14]diazatetracyclo [14.7.2.0~3,6~.0~19,24~]pentacosa[8,16,18,24]tetraen]-15′-one 13′,13′-dioxide], the pIC50 in test [1] (setting [3]) was 9.36; in test [2] (setting [4]), 6.63.

For `C[C@@H]1[C@@H](C)CCC[C@]2(CC(N(C)C)=NO2)[C@@H]2CC[C@H]2CN2C[C@@]3(CCCc4cc(Cl)ccc43)COc3ccc(cc32)C(=O)NS1(=O)=O` [Example 100136, (1S,3′R,6′R,7′S,11′S,12′R)-6-chloro-3″- (dimethylamino)-11′,12′-dimethyl-3,4-dihydro-2H,4″H,15′H-dispiro[naphthalene-1,22′-[20]oxa[13]thia[1,14]diazatetracyclo [14.7.2.0~3,6~.0~19,24~]pentacosa[16,18,24]triene-7′,5″-[1,2]oxazol]-15′-one 13′,13′-dioxide], the pIC50 in test [1] (setting [3]) is 9.43; in test [2] (setting [5]), 6.25.

Turning to `C[C@@H]1[C@@H](C)C/C=C/[C@](O)(c2ccncn2)[C@@H]2CC[C@H]2CN2C[C@@]3(CCCc4cc(Cl)ccc43)COc3ccc(cc32)C(=O)NS1(=O)=O` [Example 100361, (1S,3′R,6′R,7′R,8′E,11′S,12′R)-6-chloro-7′-hydroxy-11′,12′-dimethyl-7′-(4-pyrimidinyl)-3,4-dihydro-2H,15′H-spiro[naphthalene-1,22′-[20]oxa[13]thia[1,14]diazatetracyclo [14.7.2.0~3,6~.0~19,24~]pentacosa[8,16,18,24]tetraen]-15′-one 13′,13′-dioxide], the pIC50 in test [1] (setting [3]) was 9.68; in test [2] (setting [5]) it was 6.81.

For `C#C[C@@]1(OC)/C=C/C[C@H](C)[C@@H](C)S(=O)(=O)NC(=O)c2ccc3c(c2)N(C[C@@H]2CC[C@H]21)C[C@@]1(CCCc2cc(Cl)ccc21)CO3` [Example 100503, (1S,3′R,6′R,7′R,8′E,11′S,12′R)-6-chloro-7′-ethynyl-7′-methoxy-11′,12′-dimethyl-3,4-dihydro-2H,15′H-spiro[naphthalene-1,22′-[20]oxa[13]thia[1,14]diazatetracyclo [14.7.2.0~3,6~.0~19,24~]pentacosa[8,16,18,24]tetraen]-15′-one 13′,13′-dioxide], the pIC50 in test [1] (setting [3]) is 9.31; in test [2] (setting [5]), 6.15.

Consider `CO[C@@]1(c2ccc(F)nc2)/C=C/C[C@H](C)[C@@H](C)S(=O)(=O)NC(=O)c2ccc3c(c2)N(C[C@@H]2CC[C@H]21)C[C@@]1(CCCc2cc(Cl)ccc21)CO3` (single isomer, unassigned) [Example 100535], for which the pIC50 in test [1] (setting [3]) is 9.24; in test [2] (setting [4]), 6.02.

As to `C[C@@H]1[C@@H](C)CCC[C@@](O)(Cc2ccncn2)[C@@H]2CC[C@H]2CN2C[C@@]3(CCCc4cc(Cl)ccc43)COc3ccc(cc32)C(=O)NS1(=O)=O` [Example 100113, (1S,3′R,6′R,7′R,11′S,12′R)-6-chloro-7′-hydroxy-11′,12′-dimethyl-7′-(4-pyrimidinylmethyl)-3,4-dihydro-2H,15′H-spiro[naphthalene-1,22′-[20]oxa[13]thia[1,14]diazatetracyclo [14.7.2.0~3,6~.0~19,24~]pentacosa[16,18,24]trien]-15′-one 13′,13′-dioxide], the pIC50 in test [1] (setting [3]) was 9.74; in test [2] (setting [4]), 7.15.

On to `CC(=O)N[C@@]1(CN2CCOCC2)CCC[C@H](C)[C@@H](C)S(=O)(=O)NC(=O)c2ccc3c(c2)N(C[C@@H]2CC[C@H]21)C[C@@]1(CCCc2cc(Cl)ccc21)CO3` [Example 100272, N-((1S,3′R,6′R,7′S,11′S,12′R)-6-chloro-11′,12′-dimethyl-7′-(4-morpholinylmethyl)-13′,13′-dioxido-15′-oxo-3,4-dihydro-2H-spiro[naphthalene-1,22′-[20]oxa[13]thia[1,14]diazatetracyclo [14.7.2.0~3,6~.0~19,24~]pentacosa[16,18,24]trien]-7′-yl)acetamide], for which the pIC50 in test [1] (setting [3]) is 9.40; in test [2] (setting [5]), 6.46.

For `C[C@@H]1[C@@H](C)C/C=C/[C@@](C)(O)[C@@H]2CC[C@H]2CN2C[C@@]3(CCCc4cc(Cl)ccc43)COc3ccc(nc32)C(=O)NS1(=O)=O` (single isomer, unassigned) [Example 100601], the pIC50 in test [1] (setting [3]) was 9.94; in test [2] (setting [5]), 6.62.

Take `C[C@@H]1[C@@H](C)C/C=C/[C@@](O)(c2cncc(-c3ccccc3)c2)[C@@H]2CC[C@H]2CN2C[C@@]3(CCCc4cc(Cl)ccc43)COc3ccc(cc32)C(=O)NS1(=O)=O` (single isomer, unassigned) [Example 100534]: the pIC50 was 9.10 in test [1] (setting [3]) and 6.27 in test [2] (setting [5]).

`CO[C@@]1(CN2CCc3cncnc3C2)/C=C/C[C@H](C)[C@@H](C)S(=O)(=O)NC(=O)c2ccc3c(c2)N(C[C@@H]2CC[C@H]21)C[C@@]1(CCCc2cc(Cl)ccc21)CO3` [Example 211]: the pIC50 in test [1] (0.1 nM Mcl-1(171-327), 0.05 nM biotin-Bim (51-76)) was 9.83; in test [2] (Homo sapiens, OPM-2, 16 h, read-out: OPM-2 10% FBS IC50 IP, OPM-2 cells, 10% FBS, 16 h incubation), 6.81.

As for `C[C@@H]1[C@@H](C)CCC[C@@](O)(C2CCN(C)CC2)[C@@H]2CC[C@H]2CN2C[C@@]3(CCCc4cc(Cl)ccc43)COc3ccc(cc32)C(=O)NS1(=O)=O` [Example 100386, (1S,3′R,6′R,7′R,11′S,12′R)-6-chloro-7′-hydroxy-11′,12′-dimethyl-7′-(1-methyl-4-piperidinyl)-3,4-dihydro-2H,15′H-spiro[naphthalene-1,22′-[20]oxa[13]thia[1,14]diazatetracyclo [14.7.2.0~3,6~.0~19,24~]pentacosa[16,18,24]trien]-15′-one 13′,13′-dioxide], the pIC50 is 8.40 in test [1] (setting [3]) and 5.14 in test [2] (setting [4]).

For the compound `C[C@@H]1[C@@H](C)C/C=C/[C@@](CO)(OCC(F)(F)F)[C@@H]2CC[C@H]2CN2C[C@@]3(CCCc4cc(Cl)ccc43)COc3ccc(cc32)C(=O)NS1(=O)=O` (single isomer, unassigned) [Example 100604], the pIC50 is 9.14 in test [1] (setting [3]) and 5.39 in test [2] (setting [5]).

Consider `CO[C@@]1(CS(=O)(=O)C(C)C)/C=C/C[C@H](C)[C@@H](C)S(=O)(=O)NC(=O)c2ccc3c(c2)N(C[C@@H]2CC[C@H]21)C[C@@]1(CCCc2cc(Cl)ccc21)CO3` [Example 100316, (1S,3′R,6′R,7′S,8′E,11′S,12′R)-6-chloro-7′-methoxy-11′,12′-dimethyl-7′-((2-propanylsulfonyl)methyl)-3,4-dihydro-2H,15′H-spiro[naphthalene-1,22′-[20]oxa[13]thia[1,14]diazatetracyclo [14.7.2.0~3,6~.0~19,24~]pentacosa[8,16,18,24]tetraen]-15′-one 13′,13′-dioxide], for which the pIC50 is 9.56 in test [1] (setting [3]) and 6.43 in test [2] (setting [4]).

For `CO[C@@]1(CCN2CCOCC2)/C=C/C[C@H](C)[C@@H](C)S(=O)(=O)NC(=O)c2ccc3c(c2)N(C[C@@H]2CC[C@H]21)C[C@@]1(CCCc2cc(Cl)ccc21)CO3` [Example 100419, (1S,3′R,6′R,7′S,8′E,11′S,12′R)-6-chloro-7′-methoxy-11′,12′-dimethyl-7′-(2-(4-morpholinyl)ethyl)-3,4-dihydro-2H,15′H-spiro[naphthalene-1,22′-[20]oxa[13]thia[1,14]diazatetracyclo [14.7.2.0~3,6~.0~19,24~]pentacosa[8,16,18,24]tetraen]-15′-one 13′,13′-dioxide], the pIC50 in test [1] (setting [3]) was 9.56; in test [2] (setting [5]) it was 6.38.

In the case of `C#C[C@]1(OCCN2CCOCC2)/C=C/C[C@H](C)[C@@H](C)S(=O)(=O)NC(=O)c2ccc3c(c2)N(C[C@@H]2CC[C@H]21)C[C@@]1(CCCc2cc(Cl)ccc21)CO3` [Example 100504, (1S,3′R,6′R,7′S,8′E,11′S,12′R)-6-chloro-7′-ethynyl-11′,12′-dimethyl-7′-(2-(4-morpholinyl)ethoxy)-3,4-dihydro-2H,15′H-spiro[naphthalene-1,22′-[20]oxa[13]thia[1,14]diazatetracyclo [14.7.2.0~3,6~.0~19,24~]pentacosa[8,16,18,24]tetraen]-15′-one 13′,13′-dioxide], the pIC50 in test [1] (setting [3]) is 9.10; in test [2] (setting [5]), 5.72.

For the origin of these results see US10821115B2, “Compounds that inhibit Mcl-1 protein” (priority 2017, dated 2020).
